US10316008B2, “KCNQ potassium channel agonist, and preparation method therefor and use thereof” (SHANGHAI INSTITUTE OF MATERIA MEDICA, CHINESE ACADEMY OF …, priority 2014, dated 2019)
Values joined by “and” are separate entries in the source; they are usually repeats but may differ in a detail not shown here. Equal values may be shown once. Read-outs that look alike come from different tables or passages of the source.

Legend:
[1] = biological target: T1, KCNQ2/3 heterotetramer channel (Homo sapiens, UniProt O43525+O43526); experiment: KCNQ2/3 heterotetramer channel dose-response curve in CHO-K1 cells cotransfected with KCNQ2 and KCNQ3 plasmids; type: cell-based
T1 construct: expressed in transfected cells; host or cells: CHO-K1
Procedure: The culture medium for Chinese hamster oocytes (CHO-K1) (Culture Collection of Chinese Academy of Sciences): 50/50 DMEM/F-12 (Cellgro, Manassas, Va.), added with 10% fetal bovine serum (FBS) (Gibco, Australia) and 2 mM L-glutamic acid (Invitrogen). Expression of KCNQ channels: 24 h before transfection, CHO-K1 spreaded on a dish with a diameter of 60 mm. Lipofectamine 2000™ agent (Invitrogen) was used for Transfection according to the protocol thereof. GFP (green fluorescent protein) was cotransfected to be used as a indication of successful converting into KCNQ plasmid.
Whole-cell voltage-clamp recording was performed on an Axopatch-200B amplifier (Molecular Devices, Sunnyvale, Calif.) at room temperature. The electrode was made by drawing borosilicate glass capillary (World Precision Instruments, Sarasota, Fla.). The electric resistance of the electrode filled with an intracellular fluid is 3 to 5 MΩ. The composition of the intracellular fluid (1 L) was as follows: 145 mM KCl(Sigma), 1 mM MgCl2(Sigma), 5 mM EGTA(Sigma), 10 mM HEPES(Sigma) and 5 mM MgATP(Sigma) (pH was adjusted to 7.3 with KOH). During the recording, an extracellular fluid was continuously perfused by using a BPS perfusion system (ALA Scientific Instruments, Westburg, N.Y.). The composition of the extracellular fluid (1 L) was as follows: 140 mM NaCl(Sigma), 5 mM KCl(Sigma), 2 mM CaCl2(Sigma), 1.5 mM MgCl2(Sigma), 10 mM HEPES(Sigma) and 10 mM glucose(Sigma) (pH was adjusted to 7.4 with NaOH). Electric signal was filtered at 1 kHz and further converted into digital signal by using pClamp 9.2 software (Molecular Devices, Sunnyvale, Calif.) in DigiData 1322A. Series resistors compensate 60 to 80%. Up to date, multivoltage scheme was generally adopted, wherein the clamp voltage was set at −80 mV, stimulating voltage was a gradient voltage from −90 mV to 60 mV with interval of 10 mV, and the stimulating time for each voltage was 2000 ms.
The experimental procedure was the same as that in Electrophysiological Example 1. […]

[2] = Pharmacokinetics and distribution in brain tissue in rats; type: in vivo, Sprague Dawley rats; conditions: SD rats; for Vd: read-out: VdSS
Procedure: After K43 was administered to Sprague Dawley rats via intravenous injection or oral administration, blood sample and brain tissue were collected at different time points. the concentration of K43 in plasma and brain of rats after administration of the compounds was analyzed by LC-MS/MS and used to calculate the pharmacokinetic parameters, evaluating the oral bioavailability and distribution in brain tissue of K43 in rats.
24 SD rats, which were provided by SHANGHAI SLAC LABORATORY ANIMAL CO. LTD., were used to perform the experiments according to the following table.
About 0.15 mL of blood was collected through orbit per animal every time, and EDTAK2 was used for anticoagulation. For IV group, the time points for collection were before administration (0 hr), and 5 min, 15 min, 30 min, 1 h, 2 h, 4 h, 6 h, 8 h and 24 h after administration; and for PO group, the time points for collection were before administration (0 hr), 15 min, 30 min, 1 h, 2 h, 4 h, 6 h, 8 h and 24 h after administration. The time points for collecting brain tissue were 0.25, 0.5, 1, 2, 4, 6 and 24 h. The collected blood samples were placed on icen, and plasma was centrifuged within 1 h (centrifugal condition: 12000 rpm, 2 min, 4° C.). The collected plasma was cryopreserved in a −20° C. refrigerator before analysis.
Pharmacokinetic parameters after administration were calculated according to the obtained data of plasma concentration using the non-compartmental model of WinNonlin V6.3.

[3] = IV 0.500 mg/kg, plasma, individual animals IV-1 to IV-3, 0.5 mg/kg
[4] = PO 5.00 mg/kg, plasma, individual animals PO-4 to PO-6, 5 mg/kg
[5] = Sprague-Dawley, rat, plasma, iv, 0.5 mg/kg, IV 0.500 mg/kg, individual animals IV-1 to IV-3
[6] = Sprague-Dawley, rat, plasma, iv, 0.5 mg/kg, IV 0.500 mg/kg, mean

C#CCN(Cc1ccc(F)cc1)c1cc(C)c(NC(=O)OC)c(C)c1 [Compound K43, methyl 4-(N-parafluorobenzyl-N-propargyl-amino)-2,6-dimethylphenylaminoformate]
EC50 ([1]; FIG. 2, Boltzmann fit): 49 nM
agonistic activity on KCNQ2/3 heterotetramer channel relative to K21 ([1]; fold of K21): ≥ 20 times
agonistic activity on KCNQ2/3 heterotetramer channel relative to RTG ([1]; fold of RTG): ≥ 30 times
AUC0-t [2, 3]: 232 ng·h/mL and 239 ng·h/mL
AUC(0-inf) [2, 3]: 236 ng·h/mL and 242 ng·h/mL
AUMC0-inf [2, 3]: 304 h · h · ng · mL^−1 and 295 h · h · ng · mL^−1 and 293 h · h · ng · mL^−1
AUMC0-t [2, 3]: 287 h · h · ng · mL^−1 and 258 h · h · ng · mL^−1 and 270 h · h · ng · mL^−1
CL [2, 3]: 35.3 mL/min/kg and 34.5 mL/min/kg
Kcl [2, 3]: 0.552 h⁻¹ and 0.427 h⁻¹ and 0.516 h⁻¹
MRTIV [2, 3]: 1.38 h and 1.25 h and 1.21 h
VdSS [2, 3]: 2.65 L/kg and 2.51 L/kg
t1/2 [2, 3]: 1.62 h and 1.34 h
AUMC0-inf ([2]; IV 0.500 mg/kg, plasma, mean): 297 h · h · ng · mL^−1
AUMC0-t ([2]; IV 0.500 mg/kg, plasma, mean): 271 h · h · ng · mL^−1
Kcl ([2]; IV 0.500 mg/kg, plasma, mean): 0.498 h⁻¹
MRTIV ([2]; IV 0.500 mg/kg, plasma, mean): 1.28 h
AUC(0-inf) ([2]; PO 5.00 mg/kg, brain tissue): 4314 ng·h/g
AUMC0-inf ([2]; PO 5.00 mg/kg, brain tissue): 85535 h · h · ng · g^−1
AUMC0-t ([2]; PO 5.00 mg/kg, brain tissue): 25306 h · h · ng · g^−1
Kel ([2]; PO 5.00 mg/kg, brain tissue): 0.0542 h⁻¹
MRTPO ([2]; PO 5.00 mg/kg, brain tissue): 19.8 h
AUC0-t ([2]; PO 5.00 mg/kg, brain tissue (AUC0→24 hr)): 2895 ng·h/g
F ([2]; PO 5.00 mg/kg, individual animals PO-4 to PO-6, 5 mg/kg): 20.3% and 59.9% and 16.5%
AUC0-t [2, 4]: 467 ng·h/mL and 1379 ng·h/mL and 379 ng·h/mL
AUC(0-inf) [2, 4]: 471 ng·h/mL and 1605 ng·h/mL and 407 ng·h/mL
AUMC0-inf [2, 4]: 2497 h · h · ng · mL^−1 and 18103 h · h · ng · mL^−1 and 1256 h · h · ng · mL^−1
AUMC0-t [2, 4]: 2360 h · h · ng · mL^−1 and 10030 h · h · ng · mL^−1 and 957 h · h · ng · mL^−1
Cmax [2, 4]: 62.7 ng/mL and 138 ng/mL and 107 ng/mL
Kcl [2, 4]: 0.186 h⁻¹ and 0.0857 h⁻¹ and 0.371 h⁻¹
MRTPO [2, 4]: 5.30 h and 11.3 h and 3.09 h
Tmax [2, 4]: 4.00 h and 1.00 h
t1/2 [2, 4]: 3.74 h and 8.09 h and 1.87 h
AUMC0-inf ([2]; PO 5.00 mg/kg, plasma, mean): 7285 h · h · ng · mL^−1
AUMC0-t ([2]; PO 5.00 mg/kg, plasma, mean): 4449 h · h · ng · mL^−1
Kcl ([2]; PO 5.00 mg/kg, plasma, mean): 0.214 h⁻¹
MRTPO ([2]; PO 5.00 mg/kg, plasma, mean): 6.55 h
half-life ([2]; Sprague-Dawley, rat, brain, po, 5 mg/kg, PO 5.00 mg/kg, brain tissue): 12.8 h
Cmax ([2]; Sprague-Dawley, rat, brain, po, 5 mg/kg, PO 5.00 mg/kg, brain tissue, read-out: Cmax): 366 ng/g
Tmax ([2]; Sprague-Dawley, rat, brain, po, 5 mg/kg, PO 5.00 mg/kg, brain tissue, read-out: tmax): 2 h
clearance [2, 5]: 37.8 mL/min/kg
half-life [2, 5]: 1.26 h
clearance [2, 6]: 35.8 ± 1.7 mL/min/kg
half-life [2, 6]: 1.41 ± 0.191 h
AUC(0-inf) ([2]; Sprague-Dawley, rat, plasma, iv, 0.5 mg/kg, IV 0.500 mg/kg, plasma, individual animals IV-1 to IV-3, read-out: AUC0-inf): 221 ng·h/mL
AUC0-t ([2]; Sprague-Dawley, rat, plasma, iv, 0.5 mg/kg, IV 0.500 mg/kg, plasma, individual animals IV-1 to IV-3, read-out: AUC0-t): 219 ng·h/mL
Vd ([2]; Sprague-Dawley, rat, plasma, iv, 0.5 mg/kg, IV 0.500 mg/kg, plasma, individual animals IV-1 to IV-3): 3.13 L/kg
AUC(0-inf) ([2]; Sprague-Dawley, rat, plasma, iv, 0.5 mg/kg, IV 0.500 mg/kg, plasma, mean, read-out: AUC0-inf): 233 ng·h/mL
AUC0-t ([2]; Sprague-Dawley, rat, plasma, iv, 0.5 mg/kg, IV 0.500 mg/kg, plasma, mean, read-out: AUC0-t): 230 ng·h/mL
Vd ([2]; Sprague-Dawley, rat, plasma, iv, 0.5 mg/kg, IV 0.500 mg/kg, plasma, mean): 2.76 ± 0.324 L/kg
half-life ([2]; Sprague-Dawley, rat, plasma, po, 5 mg/kg, PO 5.00 mg/kg, mean): 4.56 h
AUC0-t ([2]; Sprague-Dawley, rat, plasma, po, 5 mg/kg, PO 5.00 mg/kg, plasma, mean (AUC0→24 hr), read-out: AUC0-t): 742 ± 554 ng·h/mL
AUC(0-inf) ([2]; Sprague-Dawley, rat, plasma, po, 5 mg/kg, PO 5.00 mg/kg, plasma, mean, read-out: AUC0-inf): 828 ng·h/mL
Cmax ([2]; Sprague-Dawley, rat, plasma, po, 5 mg/kg, PO 5.00 mg/kg, plasma, mean, read-out: Cmax): 103 ± 37.8 ng/mL
Tmax ([2]; Sprague-Dawley, rat, plasma, po, 5 mg/kg, PO 5.00 mg/kg, plasma, mean, read-out: tmax): 2.33 ± 1.53 h
bioavailability ([2]; Sprague-Dawley, rat, plasma, PO 5.00 mg/kg, mean, read-out: F (oral bioavailability)): 32.2 ± 24.1%
